Assay results published in ChEMBL document CHEMBL1150285, “Combination of non-natural D-amino acid derivatives and allophenylnorstatine-dimethylthioproline scaffold in HIV protease inhibitors have high efficacy in mutant HIV” (J Med Chem, 2008).

How the values were obtained:
[1] = test system: Human immunodeficiency virus 1; assay: Antiviral activity against HIV1 3B in human MT4 cells assessed as inhibition of viral-induced cytopathic effect by MTT method; format: functional, organism-based; conditions: Human immunodeficiency virus 1, 3B
[2] = Cytotoxicity against human MT4 cells by MTT assay; format: cell-based
[3] = Selectivity index, ratio of CC50 for human MT4 cells to EC50 for HIV1 3B
[4] = target: Protease (Human immunodeficiency virus 1) (UniProt Q9YQ12); conditions: at 1 nM
Protease (Human immunodeficiency virus 1), sequence (Q9YQ12 as listed by the source): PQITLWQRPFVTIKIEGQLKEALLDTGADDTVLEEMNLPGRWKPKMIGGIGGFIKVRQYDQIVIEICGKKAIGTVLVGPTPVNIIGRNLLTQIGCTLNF

[5] = test system: Human immunodeficiency virus 1; assay: Antiviral activity against wild type HIV1 NL432; format: functional, organism-based; conditions: Human immunodeficiency virus 1, NL432
[6] = test system: Human immunodeficiency virus 1; assay: Antiviral activity against nelfinavir-resistant HIV1 NL432; format: functional, organism-based; conditions: Human immunodeficiency virus 1, NL432
[7] = test system: Human immunodeficiency virus 1; assay: microbe, parasite or virus in culture; format: functional, organism-based; conditions: Human immunodeficiency virus 1, NL432
[8] = test system: Human immunodeficiency virus 1; assay: microbe, parasite or virus in culture; format: functional, organism-based; conditions: Human immunodeficiency virus 1, NL432; remark: listed apart in the source
[9] = test system: Human immunodeficiency virus 1; assay: Antiviral activity against HIV1 3B in presence of 10% fetal calf serum; format: functional, organism-based; conditions: Human immunodeficiency virus 1, 3B
[10] = test system: Human immunodeficiency virus 1; assay: Antiviral activity against HIV1 3B in presence of 10% fetal calf serum and alpha1 acid glycoprotein; format: functional, organism-based; conditions: Human immunodeficiency virus 1, 3B
[11] = test system: Human immunodeficiency virus 1; assay: Ratio of EC50 for nelfinavir-resistant HIV1 NL432 to EC50 for wild-type HIV1 NL432; format: functional

Row | Structure (SMILES) | EC50 [1] [nM] | CC50 [2] [nM] | selectivity ratio ([3]; MT4 cells) | inhibition [4] [%] | EC50 [5] [nM] | EC50 [6] [nM] | EC50 [7] [nM] | EC50 [8] [nM] | EC50 [9] [nM] | EC50 [10] [nM] | Ratio EC50 [11] | selectivity ratio ([3]; mt4)
1 | Cc1ccccc1CNC(=O)[C@H]1N(C(=O)[C@@H](O)[C@H](Cc2ccccc2)NC(=O)[C@@H](CCc2ccccc2)NS(C)(=O)=O)CSC1(C)C | 59 | 11000 | 190 | 55 | – | – | – | – | – | – | – | –
2 | CC(=O)N[C@H](CS(=O)(=O)c1ccc2ccccc2n1)C(=O)N[C@@H](Cc1ccccc1)[C@H](O)C(=O)N1CSC(C)(C)[C@H]1C(=O)NCc1ccccc1C | 94 | > 27000 | > 290 | 85 | – | – | – | – | – | – | – | –
3 | Cc1ccccc1CNC(=O)[C@H]1N(C(=O)[C@@H](O)[C@H](Cc2ccccc2)NC(=O)[C@@H](CS(=O)(=O)c2ccc(F)cc2)NS(C)(=O)=O)CSC1(C)C | 212 | > 27000 | > 130 | 94 | – | – | – | – | – | – | – | –
4 | CC(=O)N[C@H](CSCc1ccc(C)cc1)C(=O)N[C@@H](Cc1ccccc1)[C@H](O)C(=O)N1CSC(C)(C)[C@H]1C(=O)NCc1ccccc1C | 12 | 8800 | 730 | 76 | 22 | 3.6 | 41 | 27 | 12 | 84 | 0.16 | –
5 | Cc1ccccc1CNC(=O)[C@H]1N(C(=O)[C@@H](O)[C@H](Cc2ccccc2)NC(=O)[C@@H](CS(=O)(=O)c2ccc3ccccc3n2)NS(C)(=O)=O)CSC1(C)C | 473 | > 26000 | > 55 | 91 | – | – | – | – | – | – | – | –
6 | Cc1ccccc1CNC(=O)[C@H]1N(C(=O)[C@@H](O)[C@H](Cc2ccccc2)NC(=O)[C@@H](CSc2cccc3ccccc23)NS(C)(=O)=O)CSC1(C)C | 6.4 | 4400 | 690 | 74 | 9.3 | 0.67 | 17 | 13 | 4 | 347 | 0.07 | –
7 | CC(=O)N[C@H](CSCc1ccccc1)C(=O)N[C@@H](Cc1ccccc1)[C@H](O)C(=O)N1CSC(C)(C)[C@H]1C(=O)NCc1ccccc1C | 15 | 15000 | 1000 | 81 | 18 | 5.9 | 40 | 21 | 16 | 96 | 0.33 | –
8 | Cc1c(O)cccc1C(=O)N[C@@H](CSc1ccccc1)[C@H](O)CN1C[C@H]2CCCC[C@H]2C[C@H]1C(=O)NC(C)(C)C | – | – | 690 | 29 | – | – | – | – | 21 | 606 | 12 | –
9 | Cc1ccccc1CNC(=O)[C@H]1N(C(=O)[C@@H](O)[C@H](Cc2ccccc2)NC(=O)[C@@H](CS(=O)(=O)Cc2ccccc2)NS(C)(=O)=O)CSC1(C)C | 219 | > 27000 | > 120 | 66 | – | – | – | – | – | – | – | –
10 | Cc1ccccc1CNC(=O)[C@H]1N(C(=O)[C@@H](O)[C@H](Cc2ccccc2)NC(=O)[C@@H](CSc2ccc3ccccc3n2)NS(C)(=O)=O)CSC1(C)C | 169 | 8500 | 50 | 28 | – | – | – | – | – | – | – | –
11 | Cc1ccc(CS(=O)(=O)C[C@@H](NS(C)(=O)=O)C(=O)N[C@@H](Cc2ccccc2)[C@H](O)C(=O)N2CSC(C)(C)[C@H]2C(=O)NCc2ccccc2C)cc1 | 125 | > 26000 | > 210 | 52 | – | – | – | – | – | – | – | –
12 | Cc1ccc(CSC[C@@H](NS(C)(=O)=O)C(=O)N[C@@H](Cc2ccccc2)[C@H](O)C(=O)N2CSC(C)(C)[C@H]2C(=O)NCc2ccccc2C)cc1 | 17 | 8900 | 520 | 58 | 17 | 1.5 | 58 | 43 | 14 | 110 | 0.09 | –
13 | COc1ccc(CS(=O)(=O)C[C@@H](NC(C)=O)C(=O)N[C@@H](Cc2ccccc2)[C@H](O)C(=O)N2CSC(C)(C)[C@H]2C(=O)NCc2ccccc2C)cc1 | – | – | > 260 | 59 | – | – | – | – | – | – | – | –
14 | CSC[C@H](NC(=O)COc1cccc2cnccc12)C(=O)N[C@@H](Cc1ccccc1)[C@H](O)C(=O)N1CSC[C@H]1C(=O)NC(C)(C)C | – | – | – | 40 | 36 | 84 | 201 | 237 | – | 529 | 2.3 | > 1400
15 | CC(=O)N[C@H](CSc1ccc2ccccc2n1)C(=O)N[C@@H](Cc1ccccc1)[C@H](O)C(=O)N1CSC(C)(C)[C@H]1C(=O)NCc1ccccc1C | 151 | 9700 | 64 | 27 | – | – | – | – | – | – | – | –
16 | CC(=O)N[C@H](CS(=O)(=O)Cc1ccc(C)cc1)C(=O)N[C@@H](Cc1ccccc1)[C@H](O)C(=O)N1CSC(C)(C)[C@H]1C(=O)NCc1ccccc1C | 82 | > 28000 | > 340 | 53 | – | – | – | – | – | – | – | –
17 | CC(C)c1nc(CN(C)C(=O)N[C@H](C(=O)N[C@@H](Cc2ccccc2)C[C@H](O)[C@H](Cc2ccccc2)NC(=O)OCc2cncs2)C(C)C)cs1 [RITONAVIR] | – | – | – | 90 | – | – | – | – | 24 | 422 | – | –
18 | CC(=O)N[C@H](CSc1cccc2ccccc12)C(=O)N[C@@H](Cc1ccccc1)[C@H](O)C(=O)N1CSC(C)(C)[C@H]1C(=O)NCc1ccccc1C | 17 | 8000 | 470 | 68 | 20 | 6.3 | 70 | 52 | 14 | 401 | 0.32 | –
19 | CC(=O)N[C@H](CCc1ccccc1)C(=O)N[C@@H](Cc1ccccc1)[C@H](O)C(=O)N1CSC(C)(C)[C@H]1C(=O)NCc1ccccc1C | 51 | > 31000 | > 610 | 45 | 78 | 18 | 101 | 132 | 25 | 155 | 0.23 | –
20 | CC(=O)N[C@H](CSc1ccc2ccccc2c1)C(=O)N[C@@H](Cc1ccccc1)[C@H](O)C(=O)N1CSC(C)(C)[C@H]1C(=O)NCc1ccccc1C | 18 | 8300 | 460 | 53 | 17 | 7.2 | 65 | 32 | 14 | 95 | 0.42 | –
21 | CC(=O)N[C@H](CS(=O)(=O)Cc1ccccc1)C(=O)N[C@@H](Cc1ccccc1)[C@H](O)C(=O)N1CSC(C)(C)[C@H]1C(=O)NCc1ccccc1C | 117 | > 28000 | > 240 | 47 | – | – | – | – | – | – | – | –
22 | Cc1ccccc1CNC(=O)[C@H]1N(C(=O)[C@@H](O)[C@H](Cc2ccccc2)NC(=O)[C@@H](CSCc2ccccc2)NS(C)(=O)=O)CSC1(C)C | 17 | 9800 | 580 | 66 | 20 | 1.8 | 63 | 55 | 18 | 88 | 0.09 | –
23 | COc1ccc(CS(=O)(=O)C[C@@H](NS(C)(=O)=O)C(=O)N[C@@H](Cc2ccccc2)[C@H](O)C(=O)N2CSC(C)(C)[C@H]2C(=O)NCc2ccccc2C)cc1 | 203 | > 26000 | > 130 | 66 | – | – | – | – | – | – | – | –
